Test results as given in US10806794B2, “Protease inhibitors having enhanced features” (priority 2008, dated 2020).
Values joined by “and” are separate entries in the source; they are usually repeats but may differ in a detail not shown here. Identical values can stand only once. Like-named read-outs stand apart in the source and are kept apart here.

Tests used:
CYP2D6 = CYP2D6 (Homo sapiens (Human), UniProt P10635); experiment: CYP450 inhibition in human liver microsomes: CYP2D6
CYP1A2 = CYP1A2 (Homo sapiens (Human), UniProt P05177); experiment: CYP450 inhibition in human liver microsomes: CYP1A2
HIV-1RF = experiment: Anti-HIV cytoprotection in CEM-SS cells infected with HIV-1RF (XTT); format: cell-based
Description: To evaluate whether conjugated protease inhibitors retain the ability to protect against HIV-1 infection, CEM-SS cells infected with the RF strain of HIV-1 were treated with test compounds for six days, and then cell viability was monitored using the tetrazolium dye XTT. […] A value for Therapeutic Index (TI) was calculated as TC50/EC50.

PBMCs [1] = experiment: PBMC cytotoxicity (XTT); format: cell-based, human; settings: 7 days
Description: Mononuclear cells were isolated from fresh human peripheral blood cells by Ficoll-Hypaque density gradient by centrifugation at 600 g for 30 minutes. Banded peripheral blood mononuclear cells (PBMCs) were aspirated from the resulting interface and washed with phosphate buffered saline by low speed centrifugation. Cell viability was evaluated by Trypan Blue dye exclusion. […] Plates were incubated at 37° C., 5% CO2 for 7 days prior to cytotoxicity evaluation. XTT measurement for cytotoxicity.

PBMCs [2] = experiment: PBMC macromolecule synthesis (tritiated precursor incorporation); format: cell-based, human; settings: for Thymidine Incorporation (PBMC) TC50: DNA synthesis; for Uridine Incorporation (PBMC) TC50: RNA synthesis; for Leucine Incorporation (PBMC) TC50: protein synthesis
Description: Cellular macromolecule synthesis was evaluated using tritiated precursor incorporation assays. PBMCs (5×10^4 cells/well) were cultured in the presence or absence of test compound for 7 days at 37 C, 5% CO2 in a 96-well microtiter plate. On day 6 of the incubation, 1 uCi of [methyl-3H]-thymidine for DNA synthesis, [5-3H]-uridine for RNA synthesis, or [3,4,5-3H]-leucine for protein synthesis was added to compound-treated cells, and the plate was further incubated for 16 hours. The cells were transferred to a glass fiber filtermat using an Inotech cell harvester. The filtermats were washed with distilled water then sealed in a bag with scintillation fluid. Incorporated radioactivity was measured using a Wallac scintillation counter.

HIV-1BaL = experiment: HIV-1 p24 levels after infection of fresh human monocyte/macrophages; format: cell-based
Description: Mononuclear cells were isolated from fresh human peripheral blood cells by Ficoll-Hypaque density gradient by centrifugation at 600 g for 30 minutes. Banded peripheral blood mononuclear cells (PBMCs) were aspirated from the resulting interface and washed with phosphate buffered saline by low speed centrifugation. […] Cells were allowed to attach for 2 to 12 h at 37° C., then washed with Dulbecco's phosphate buffered saline (DPBS). Monocyte-macrophage monolayer formation was induced by incubation in growth medium (RPMI 1640 medium supplemented with 10% fetal bovine serum, 2 mmol/L L-glutamine, 100 Units/mL penicllin and 10 μg/mL streptomycin) for 7 days. Residual PBMCs were removed by washing the cell monolayers with DPBS. After washing, test compound diluted in growth medium was added to cells. Immediately following test compound addition, HIV-1 virus was added to the cells at multiplicity of infection (MOI)=0.05-0.10. After 7 days in culture, HIV-1 replication was quantified by ELISA measurement of cell-free HIV-1 viral capsid protein (p24) in the tissue culture supernatant of treated monocyte-macrophage monolayers. ELISA to quantify p24 was performed according to manufacturer's instructions (Perkin Elmer, Waltham, Mass.). The quantity of free HIV-1 p24 antigen in the sample was determined by comparing its absorbance at 490 nm to that of control standards.
(§1) Fresh human monocytes were infected with the BaL strain of HIV-1 in the presence of test compounds. After seven days in culture, HIV-1 replication was evaluated by measurement of HIV-1 viral capsid protein (p24) in the tissue culture supernatant (Table 7). […] A TI was calculated as described above using TC50 values derived from cell toxicity data in response to test compounds in the absence of viral infection.

human monocytes = experiment: Toxicity in human monocytes in the absence of viral infection
Description: as §1

[3] = Metabolic stability in human liver microsomes; settings: human liver microsomes, 3 μM;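 for t1/2: microsomal protein 0.5 mg/mL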
Outline: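 Substrate depletion: compounds at 3 μM final with pooled mixed-sex human liver microsomes (0.5 mg/mL) in 0.1 M phosphate pH 7.4 at 37 °C. Remaining parent quantified by LC-MS/MS.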

[4] = test system: cynomolgus monkey hepatocytes; experiment: Metabolic stability in cynomolgus monkey hepatocytes; format: in vitro ADME; settings: 0.1 uM
HIV-1 HT/92/599 = experiment: HIV-1 reverse transcriptase activity after infection of fresh human PBMCs; format: cell-based; settings: read-out: PBMC/HIV-1HT/92/599 EC50 ± SD; seven days, reverse transcriptase activity
Outline: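 PHA-P/IL-2-stimulated fresh human PBMCs infected with HIV-1; supernatant reverse transcriptase activity measured by tritiated TTP incorporation on poly rA/oligo dT, 90 min at 37° C. Toxicity from 7-day uninfected PBMC culture read by XTT; TI = TC50/EC50.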

[5] = six days, XTT, read-out: CEM-SS/HIV-1RF EC50 ± SD
[6] = monocyte/macrophages, absence of viral infection
[7] = seven days, p24, read-out: Monocyte/HIV-1BaL EC50
[8] = read-out: CYP2D6 IC50 Dextromethorphan, probe substrate dextromethorphan
[9] = read-out: CYP1A2 IC50 Phenacetin, probe substrate phenacetin

Chain of CYP2D6 (P10635 whole entry): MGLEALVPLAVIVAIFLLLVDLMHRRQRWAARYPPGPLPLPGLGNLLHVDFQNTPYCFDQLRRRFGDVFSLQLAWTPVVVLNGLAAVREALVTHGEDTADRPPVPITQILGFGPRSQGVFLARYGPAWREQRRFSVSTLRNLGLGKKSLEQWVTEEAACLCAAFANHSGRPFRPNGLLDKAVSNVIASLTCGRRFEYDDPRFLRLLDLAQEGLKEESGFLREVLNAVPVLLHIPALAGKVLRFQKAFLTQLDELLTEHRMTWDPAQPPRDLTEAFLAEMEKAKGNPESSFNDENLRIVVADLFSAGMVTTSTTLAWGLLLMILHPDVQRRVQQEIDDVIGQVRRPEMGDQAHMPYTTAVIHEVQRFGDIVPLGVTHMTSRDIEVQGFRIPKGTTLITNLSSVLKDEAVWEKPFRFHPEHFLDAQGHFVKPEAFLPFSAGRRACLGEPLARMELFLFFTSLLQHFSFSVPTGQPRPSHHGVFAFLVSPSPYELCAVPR
Chain of CYP1A2 (P05177 whole entry): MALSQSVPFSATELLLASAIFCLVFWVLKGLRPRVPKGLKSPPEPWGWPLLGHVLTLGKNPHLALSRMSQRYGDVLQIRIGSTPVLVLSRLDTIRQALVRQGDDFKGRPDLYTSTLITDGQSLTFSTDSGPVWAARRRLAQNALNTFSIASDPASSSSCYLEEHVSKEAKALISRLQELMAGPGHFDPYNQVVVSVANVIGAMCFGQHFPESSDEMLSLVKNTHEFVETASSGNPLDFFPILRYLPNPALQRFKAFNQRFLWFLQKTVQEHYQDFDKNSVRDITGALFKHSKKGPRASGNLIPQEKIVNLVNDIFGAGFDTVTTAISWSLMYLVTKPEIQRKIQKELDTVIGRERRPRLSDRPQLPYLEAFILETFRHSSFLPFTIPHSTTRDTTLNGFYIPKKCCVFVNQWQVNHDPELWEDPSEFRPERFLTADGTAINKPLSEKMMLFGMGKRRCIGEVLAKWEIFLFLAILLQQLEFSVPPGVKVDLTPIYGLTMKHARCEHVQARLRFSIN

Row | Compound | IC50 (CYP2D6) [nM] | IC50 (CYP1A2) [nM] | EC50 (HIV-1RF; [5]) | XTT (PBMC) TC50 (PBMCs [1]) [nM] | Thymidine Incorporation (PBMC) TC50 (PBMCs [2]) [nM] | Uridine Incorporation (PBMC) TC50 (PBMCs [2]) [nM] | Leucine Incorporation (PBMC) TC50 (PBMCs [2]) [nM] | EC50 (HIV-1BaL; Human immunodeficiency virus 1, Monocyte, 168 h, read-out: Monocyte/HIV-1BaL EC50, seven days, p24) [nM] | TC50 (human monocytes; [6]) [nM] | EC50 (HIV-1RF; Human immunodeficiency virus 1, CEM-SS, 144 h, read-out: CEM-SS/HIV-1RF EC50 ± SD, six days, XTT) [nM] | EC50 (HIV-1RF; read-out: CEM-SS/HIV-1RF EC50 ± SD, six days, XTT) | CLint ± SEM [3] [μL/min/mg protein] | t1/2 [3] [min] | EC50 (HIV-1BaL; [7]) [nM] | CLint ± SEM [4] [μL/min/10^6 cells] | t1/2 [4] [h] | EC50 (HIV-1 HT/92/599) | IC50 (CYP2D6; [8]) [nM] | IC50 (CYP1A2; [9]) [nM] | TC50 (human monocytes) [nM]
1 | COC(=O)N[C@H](C(=O)N[C@@H](Cc1ccccc1)[C@@H](O)CN(Cc1ccc(-c2ccccn2)cc1)NC(=O)[C@@H](NC(=O)OC)C(C)(C)C)C(C)(C)C [Atazanavir, reference compound] | 14900 | 20600 | 15 ± 14 nM | 109400 | 81100 | 87200 | 94700 |  |  |  |  |  |  |  |  |  |  |  |  | 
2 | CC(C)CN(C[C@@H](O)[C@H](Cc1ccccc1)NC(=O)O[C@H]1CO[C@H]2OCC[C@H]21)S(=O)(=O)c1ccc(N)cc1 [Darunavir, reference compound] |  |  |  | 328400 | 184300 | 189300 | 258300 | < 20 | >200000 | < 0.7 | < 0.66 nM and 1 nM |  |  |  |  |  |  |  |  | 
3 | COCCOCCOCCOc1ccc(C[C@H](NC(=O)O[C@H]2CO[C@H]3OCC[C@H]32)C(O)CN(CC(C)C)S(=O)(=O)c2ccc(N)cc2)cc1 (stereo partly shown) [mPEG3-O-Darunavir] |  |  |  | >400000 | 109600 | 139400 | 218900 |  | >200000 |  |  | 77.4 ± 9.14 | 17.9 | 1030 ± 1450 | 8.53 ± 0.563 | 2.72 | 27 ± 6 nM |  |  | 
4 | COCCOCCOCCOCCOCCNc1ccc(S(=O)(=O)N(CC(C)C)CC(O)[C@H](Cc2ccccc2)NC(=O)O[C@H]2CO[C@H]3OCC[C@H]32)cc1 (stereo partly shown) [mPEG5-N-Darunavir] |  |  |  | 223500 | 41300 | 73200 | 98500 |  | >200000 |  |  | 440 ± 19.0 | 3.15 | 303 ± 366 | 26.5 ± 0.942 | 0.872 | < 20 nM and 33 nM |  |  | 
5 | COCCOCCOCCOCCOCCOc1ccc(C[C@H](NC(=O)O[C@H]2CO[C@H]3OCC[C@H]32)C(O)CN(CC(C)C)S(=O)(=O)c2ccc(N)cc2)cc1 (stereo partly shown) [mPEG5-O-Darunavir] |  |  |  | >400000 | >400000 | >400000 | >400000 |  | >200000 |  |  | 198 ± 22.1 | 7.00 | 263 ± 155 |  |  | 90 ± 8 nM |  |  | 
6 | COCCOCCOCCOCCOCCOCCOCCNc1ccc(S(=O)(=O)N(CC(C)C)CC(O)[C@H](Cc2ccccc2)NC(=O)O[C@H]2CO[C@H]3OCC[C@H]32)cc1 (stereo partly shown) [mPEG7-N-Darunavir] |  |  | 14 nM and 11 nM | 381300 |  |  |  |  | >200000 |  |  | 356 ± 7.74 | 3.89 | 577 ± 423 | 0.286 ± 0.504 | 80.83 | 73 ± 12 nM |  |  | 
7 | COCCOC(=O)NC(C(=O)NC(Cc1ccccc1)C(O)CN(Cc1ccc(-c2ccccn2)cc1)NC(=O)C(NC(=O)OC)C(C)(C)C)C(C)(C)C (stereo not shown) [mono-mPEG1-Atazanavir] |  |  | 2 ± 0.6 nM |  |  |  |  |  |  |  |  | 181 ± 0.640 | 7.65 | < 20 | 70.3 ± 0.0027 | 0.328 | < 20 nM | 18300 | > 25000 | 159100
8 | COCCOCCOCCOCCOCCOC(=O)NC(C(=O)NC(Cc1ccccc1)C(O)CN(Cc1ccc(-c2ccccn2)cc1)NC(=O)C(NC(=O)OC)C(C)(C)C)C(C)(C)C (stereo not shown) [mono-mPEG5-Atazanavir] |  |  | 1 ± 0.6 nM |  |  |  |  |  |  |  |  | 108 ± 9.75 | 12.9 | 56.6 ± 12.2 | 13.8 ± 0.00163 | 1.67 |  | 22200 | > 25000 | 120800
9 | COCCOCCOCCOCCOCCOCCOC(=O)NC(C(=O)NC(Cc1ccccc1)C(O)CN(Cc1ccc(-c2ccccn2)cc1)NC(=O)C(NC(=O)OC)C(C)(C)C)C(C)(C)C (stereo not shown) [mono-mPEG6-Atazanavir] |  |  |  |  |  |  |  |  |  |  |  | 112 ± 1.10 | 12.3 | 43.3 ± 20.4 | 0.245 ± 0.000245 | 94.33 | 108 nM and 117 nM and 60 nM | > 25000 | > 25000 | 130200
10 | COCCOCCOCCOCCOCCOCCOCCOC(=O)NC(C(=O)NC(Cc1ccccc1)C(O)CN(Cc1ccc(-c2ccccn2)cc1)NC(=O)C(NC(=O)OC)C(C)(C)C)C(C)(C)C (stereo not shown) [mono-mPEG7-Atazanavir] |  |  | 30 ± 20 nM |  |  |  |  |  |  |  |  | 71.0 ± 5.63 | 19.5 | 137 ± 60.1 |  |  | 163 ± 30 nM | > 25000 | > 25000 | 132200
